Results published in US20260022142A1, “MACROCYCLIC IMMUNOMODULATORS” (Bristol-Myers Squibb Company, priority 2022, published 2026).
pIC50: −log10 of the molar value. Numbered stars: 1 amine (or outer) side, 2 acyl side, 3 side chain; on linkers, the order of the positions; unused ones are H or OH. Bridge positions count the residues as written; N and C are the ends. Square brackets hold non-standard residues; d marks the D form. Peptide text beside a SMILES is read from it. * marks the point of attachment. ξ: configuration not given here. Phe(4-CONH2) = NC(=O)c1ccc(C[C@H](N)C(=O)O)cc1; Phe(4-COOH) = N[C@@H](Cc1ccc(C(=O)O)cc1)C(=O)O; Bip = N[C@@H](Cc1ccc(-c2ccccc2)cc1)C(=O)O; Phe(3-Me) = Cc1cccc(C[C@H](N)C(=O)O)c1; γGlu = O=C(O)[C@H](CCC(=O)[*:2])N[*:1]; Val(3-OH) = CC(C)(O)[C@H](N)C(=O)O; hCha = N[C@@H](CCC1CCCCC1)C(=O)O; Cha = N[C@@H](CC1CCCCC1)C(=O)O; Thr(3ξ) = CC(O)[C@H](N)C(=O)O; Carboxymethyl = O=C(O)C*; Orn = NCCC[C@H](N)C(=O)O; Aun = NCCCCCCCCCCC(=O)O; Dab = NCC[C@H](N)C(=O)O; Abu = CC[C@H](N)C(=O)O; Dap = NC[C@H](N)C(=O)O; AEEA = NCCOCCOCC(=O)O; ξDab = NCCC(N)C(=O)O

Biological target: T1, PD-1/PD-L1 interaction (PE-labeled human PD-L1-Ig binding to Jurkat cell line over-expressing human PD-1) (Homo sapiens, UniProt Q15116)
T1 construct: expressed in transfected cells; host or cells: Jurkat
Assay: Jurkat-PD-1 Cell Binding High-Content Screening Assay (CBA)
Type: cell-based
Details: Jurkat cell line over-expressing human PD-1; PE-labeled PD-L1-Ig 20 nM final; read-out: Jurkat hPD1-PDL1 IC50
How it was run: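 Jurkat cells stably over-expressing human PD-1 were seeded in DMEM with 10% fetal calf serum and pre-incubated with compound for 2 h at 37° C. PE-labeled human PD-L1-Ig was then added at 20 nM final for 1 hour, after which cells were fixed with paraformaldehyde, Hoechst-stained and imaged by high-content microscopy.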

T1 sequence (Q15116 25-288): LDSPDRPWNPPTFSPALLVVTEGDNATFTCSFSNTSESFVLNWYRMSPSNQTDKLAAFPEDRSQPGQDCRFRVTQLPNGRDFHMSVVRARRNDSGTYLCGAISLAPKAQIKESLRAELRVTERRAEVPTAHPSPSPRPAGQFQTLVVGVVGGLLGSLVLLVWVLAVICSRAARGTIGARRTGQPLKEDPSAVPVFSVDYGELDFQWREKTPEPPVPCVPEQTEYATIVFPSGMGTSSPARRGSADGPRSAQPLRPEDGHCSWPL

Row | Compound | pIC50
1 | CC(C)C[C@H]1NC(=O)[C@H](CCCN)NC(=O)[C@H](Cc2ccc(O)cc2)NC(=O)[C@H](Cc2ccc(-c3ccccc3)cc2)NC(=O)[C@H](Cc2ccc(O)cc2)NC(=O)[C@H](Cc2c[nH]c3ccccc23)NC(=O)[C@H](CC(=O)O)NC(=O)[C@H](Cc2ccc(OCC(=O)O)cc2)NC(=O)[C@H](Cc2ccc(OCC(=O)O)cc2)NC(=O)CSC[C@@H](C(=O)NC(CCN)C(=O)NCCCCCCCCCCC(=O)O)NC(=O)[C@H](CCCNC(=N)N)NC(=O)[C@H](Cc2ccc(O)cc2)NC(=O)[C@H](CC2CCCCC2)NC(=O)[C@H](CCN)NC1=O (stereo partly drawn) [Compound 2508] ({CH2CO}-Y(Carboxymethyl)Y(Carboxymethyl)DWY[Bip]Y[Orn][dL][Dab][Cha]YRC[ξDab][Aun]-OH; thioether N-14) | 6.88
2 | CC(C)C[C@H]1NC(=O)[C@H](CCCN)NC(=O)[C@H](C(C)C)NC(=O)[C@H](Cc2ccc(-c3ccccc3)cc2)NC(=O)[C@H](C(C)C)NC(=O)[C@H](Cc2c[nH]c3ccccc23)NC(=O)[C@H](CC(=O)O)NC(=O)[C@H](Cc2ccc(OCC(=O)O)cc2)NC(=O)[C@H](C(C)O)NC(=O)CSC[C@@H](C(=O)N[C@@H](CCN)C(=O)NCCCCCCCCCCC(=O)O)NC(=O)[C@H](CN)NC(=O)[C@H](C(C)O)NC(=O)[C@H](CC2CCCCC2)NC(=O)[C@H](CCN)NC1=O (stereo partly drawn) [Compound 3661] ({CH2CO}-[Thr(3ξ)]Y(Carboxymethyl)DWV[Bip]V[Orn][dL][Dab][Cha][Thr(3ξ)][Dap]C[Dab][Aun]-OH; thioether N-14) | 7.45
3 | Cc1cccc(C[C@@H]2NC(=O)[C@H](CC(=O)O)NC(=O)[C@H](Cc3ccc(OCC(=O)O)cc3)NC(=O)[C@H](CN)NC(=O)CSC[C@@H](C(=O)N[C@@H](CCCCN)C(=O)NCCCCCCCCCCC(=O)O)NC(=O)[C@H](C(C)O)NC(=O)[C@H](C(C)C)NC(=O)[C@H](CC3CCCCC3)NC(=O)[C@H](CCN)NC(=O)[C@@H](CC(C)C)NC(=O)[C@H](CCCN)NC(=O)[C@H](Cc3ccc(O)cc3)NC(=O)[C@H](Cc3ccc(-c4ccccc4)cc3)NC(=O)[C@H](C(C)C)NC2=O)c1 (stereo partly drawn) [Compound 2589] ({CH2CO}-[Dap]Y(Carboxymethyl)D[Phe(3-Me)]V[Bip]Y[Orn][dL][Dab][Cha]V[Thr(3ξ)]CK[Aun]-OH; thioether N-14) | 7.87
4 | CC(C)C[C@H]1NC(=O)[C@H](CCCN)NC(=O)[C@H](Cc2ccc(O)cc2)NC(=O)[C@H](Cc2ccc(-c3ccccc3)cc2)NC(=O)[C@H](Cc2ccc(O)cc2)NC(=O)[C@H](Cc2c[nH]c3ccccc23)NC(=O)[C@H](CC(=O)O)NC(=O)[C@H](Cc2ccc(OCC(=O)O)cc2)NC(=O)[C@H](CN)NC(=O)CSC[C@@H](C(=O)NCCOCCOCC(=O)NCCCCCCCCCCC(=O)O)NC(=O)[C@H](CCCCN)NC(=O)[C@H](Cc2ccc(O)cc2)NC(=O)[C@H](CC2CCCCC2)NC(=O)[C@H](CCN)NC1=O [Compound 2517] ({CH2CO}-[Dap]Y(Carboxymethyl)DWY[Bip]Y[Orn][dL][Dab][Cha]YKC[AEEA][Aun]-OH; thioether N-14) | 6.56
5 | CC(C)C[C@H]1NC(=O)[C@H](CCCN)NC(=O)[C@H](C(C)C)NC(=O)[C@H](Cc2ccc(-c3ccccc3)cc2)NC(=O)[C@H](C(C)C)NC(=O)[C@H](Cc2c[nH]c3ccccc23)NC(=O)[C@H](CC(=O)O)NC(=O)[C@H](Cc2ccc(OCC(=O)O)cc2)NC(=O)[C@H](CN)NC(=O)CSC[C@@H](C(=O)N[C@@H](CCCN)C(=O)NCCOCCOCC(=O)NCCCCCCCCCCC(=O)O)NC(=O)[C@H](CO)NC(=O)[C@H](C(C)C)NC(=O)[C@H](CC2CCCCC2)NC(=O)[C@H](C(C)O)NC1=O (stereo partly drawn) [Compound 3192] ({CH2CO}-[Dap]Y(Carboxymethyl)DWV[Bip]V[Orn][dL][Thr(3ξ)][Cha]VSC[Orn][AEEA][Aun]-OH; thioether N-14) | 7.74
6 | Cc1cccc(C[C@@H]2NC(=O)[C@H](CC(=O)O)NC(=O)[C@H](Cc3ccc(OCC(=O)O)cc3)NC(=O)[C@H](CN)NC(=O)CSC[C@@H](C(=O)N[C@@H](CCN)C(=O)NCCOCCOCC(=O)NCCCCCCCCCCC(=O)O)NC(=O)[C@H](CCC(=O)O)NC(=O)[C@H](C(C)C)NC(=O)[C@H](CCC3CCCCC3)NC(=O)[C@H](CCN)NC(=O)[C@@H](CC(C)C)NC(=O)[C@H](CCCN)NC(=O)[C@H](Cc3ccc(OCC(=O)O)cc3)NC(=O)[C@H](Cc3ccc(-c4ccccc4)cc3)NC(=O)[C@H](Cc3ccc(C(=O)O)cc3)NC2=O)c1 [Compound 1276] ({CH2CO}-[Dap]Y(Carboxymethyl)D[Phe(3-Me)][Phe(4-COOH)][Bip]Y(Carboxymethyl)[Orn][dL][Dab][hCha]VEC[Dab][AEEA][Aun]-OH; thioether N-14) | 7.30
7 | Cc1cccc(C[C@@H]2NC(=O)[C@H](CC(=O)O)NC(=O)[C@H](Cc3ccc(OCC(=O)O)cc3)NC(=O)[C@H](CN)NC(=O)CSC[C@@H](C(=O)N[C@@H](C)C(=O)N[C@@H](CCC(=O)O)C(=O)NCCCCCCCCCCC(=O)O)NC(=O)[C@H]([C@@H](C)O)NC(=O)[C@H](C(C)C)NC(=O)[C@H](CC3CCCCC3)NC(=O)[C@H](Cc3cnc[nH]3)NC(=O)[C@@H](CC(C)C)NC(=O)[C@H](CCCN)NC(=O)[C@H](C(C)C)NC(=O)[C@H](Cc3ccc(-c4ccccc4)cc3)NC(=O)[C@H](C(C)C)NC2=O)c1 [Compound 1103] ({CH2CO}-[Dap]Y(Carboxymethyl)D[Phe(3-Me)]V[Bip]V[Orn][dL]H[Cha]VTCAE[Aun]-OH; thioether N-14) | 7.54
8 | Cc1cccc(C[C@@H]2NC(=O)[C@H](CC(=O)O)NC(=O)[C@H](Cc3ccc(OCC(=O)O)cc3)NC(=O)[C@H](CCN)NC(=O)CSC[C@@H](C(=O)N[C@@H](CO)C(=O)NCCCCCCCCCCC(=O)O)NC(=O)[C@H](C(C)O)NC(=O)[C@H](C(C)(C)O)NC(=O)[C@H](CC3CCCCC3)NC(=O)[C@H](CCN)NC(=O)[C@@H](CC(C)C)NC(=O)[C@H](CCCN)NC(=O)[C@H](Cc3ccc(O)cc3)NC(=O)[C@H](Cc3ccc(-c4ccccc4)cc3)NC(=O)[C@H](Cc3ccc(C(N)=O)cc3)NC2=O)c1 (stereo partly drawn) [Compound 3725] ({CH2CO}-[Dab]Y(Carboxymethyl)D[Phe(3-Me)][Phe(4-CONH2)][Bip]Y[Orn][dL][Dab][Cha][Val(3-OH)][Thr(3ξ)]CS[Aun]-OH; thioether N-14) | 7.52

The next compounds have a higher pIC50 than those just listed; values first:

Row | pIC50 | Compound
9 | 8.02 | CC(C)C[C@H]1NC(=O)[C@H](CCCN)NC(=O)[C@H](C(C)C)NC(=O)[C@H](Cc2ccc(-c3ccccc3)cc2)NC(=O)[C@H](C(C)C)NC(=O)[C@H](Cc2c[nH]c3ccccc23)NC(=O)[C@H](CC(=O)O)NC(=O)[C@H](Cc2ccc(OCC(=O)O)cc2)NC(=O)[C@H](CN)NC(=O)CSC[C@@H](C(=O)N[C@@H](CCN)C(=O)NCCOCCOCC(=O)N[C@@H](CCC(=O)NCCCCCCCCCCC(=O)O)C(=O)O)NC(=O)[C@H](CCN)NC(=O)[C@H](C(C)O)NC(=O)[C@H](CC2CCCCC2)NC(=O)[C@H](CCN)NC1=O (stereo partly drawn) [Compound 3679] ({CH2CO}-[Dap]Y(Carboxymethyl)DWV[Bip]V[Orn][dL][Dab][Cha][Thr(3ξ)][Dab]C[Dab][AEEA][γGlu][Aun]-OH; thioether N-14)
10 | 7.89 | CC(C)C[C@H]1NC(=O)[C@H](CCCN)NC(=O)[C@H](Cc2ccc(O)cc2)NC(=O)[C@H](Cc2ccc(-c3ccccc3)cc2)NC(=O)[C@H](C(C)C)NC(=O)[C@H](Cc2c[nH]c3ccccc23)NC(=O)[C@H](CC(=O)O)NC(=O)[C@H](Cc2ccc(OCC(=O)O)cc2)NC(=O)[C@H](CCCNC(=N)N)NC(=O)CSC[C@@H](C(=O)NCCOCCOCC(=O)NCCCCCCCCCCC(=O)O)NC(=O)[C@H](C(C)O)NC(=O)[C@H](C(C)C)NC(=O)[C@H](CC2CCCCC2)NC(=O)[C@H](CCN)NC1=O (stereo partly drawn) [Compound 3393] ({CH2CO}-RY(Carboxymethyl)DWV[Bip]Y[Orn][dL][Dab][Cha]V[Thr(3ξ)]C[AEEA][Aun]-OH; thioether N-14)
11 | 8.47 | Cc1cccc(C[C@@H]2NC(=O)[C@H](CC(=O)O)NC(=O)[C@H](Cc3ccc(C(=O)O)cc3)NC(=O)[C@H](C(C)O)NC(=O)CSC[C@@H](C(=O)N[C@@H](CCN)C(=O)NCCOCCOCC(=O)NCCOCCOCC(=O)NCCCCCCCCCCC(=O)O)NC(=O)[C@H](CO)NC(=O)[C@H](C(C)(C)O)NC(=O)[C@H](CC3CCCCC3)NC(=O)[C@H](CCN)NC(=O)[C@@H](CC(C)C)NC(=O)[C@H](CCCN)NC(=O)[C@H](Cc3ccc(C(=O)O)cc3)NC(=O)[C@H](Cc3ccc(-c4ccccc4)cc3)NC(=O)[C@H](Cc3ccc(C(=O)O)cc3)NC2=O)c1 (stereo partly drawn) [Compound 3777] ({CH2CO}-[Thr(3ξ)][Phe(4-COOH)]D[Phe(3-Me)][Phe(4-COOH)][Bip][Phe(4-COOH)][Orn][dL][Dab][Cha][Val(3-OH)]SC[Dab][AEEA][AEEA][Aun]-OH; thioether N-14)
12 | 8.57 | CC[C@@H]1NC(=O)CSC[C@@H](C(=O)N[C@@H](CCN)C(=O)NCCOCCOCC(=O)NCCCCCCCCCCC(=O)O)NC(=O)[C@H](CO)NC(=O)[C@H](C(C)(C)O)NC(=O)[C@H](CC2CCCCC2)NC(=O)[C@H](CCN)NC(=O)[C@@H](CC(C)C)NC(=O)[C@H](CCCN)NC(=O)[C@H](Cc2ccc(OCC(=O)O)cc2)NC(=O)[C@H](Cc2ccc(-c3ccccc3)cc2)NC(=O)[C@H](Cc2ccc(OCC(=O)O)cc2)NC(=O)[C@H](Cc2cccc(C)c2)NC(=O)[C@H](CC(=O)O)NC(=O)[C@H](Cc2ccc(OCC(=O)O)cc2)NC1=O [Compound 2879] ({CH2CO}-[Abu]Y(Carboxymethyl)D[Phe(3-Me)]Y(Carboxymethyl)[Bip]Y(Carboxymethyl)[Orn][dL][Dab][Cha][Val(3-OH)]SC[Dab][AEEA][Aun]-OH; thioether N-14)
